Data reported in patent publication US20230069586A1, “METHODS OF USING ANDROGRAPHOLIDE, ORIDONIN AND ISOLIQUIRITIGENIN AND DERIVATIVES THEREOF” (THE REGENTS OF THE UNIVERSITY OF CALIFORNIA, priority 2020, published 2023).

Key:
[1] = system: human β-defensin 3 (hBD3) peptide; assay: hBD3 peptide expression in hTCEpi cells, ELISA of supernatant; assay type: cell-based; details: increasing concentrations, 48 hours
Procedure: hTCEpi cells were seeded into a 6-well plate coated with FNC material and allowed to grow to 80% confluence. The cells were subsequently treated with increasing concentrations of andrographolide (10, 25, 50, 75, 100 μM), oridonin (1, 2, 5, 10, 15 μM), isoliquiritigenin (5, 10, 15, 25, 50 μM) for 48 hours, and a negative control (vehicle: DMSO or EtOH). After treatment, the supernatant was collected and 100 μl was used to quantify hBD3 peptide concentration (Defensin 3, beta (human) ELISA Kit, Phoenix Pharmaceuticals Inc) and performed in duplicate for each treatment. An hBD3 peptide standard curve was generated from the ELISA kit reagents. The concentration of each experimental well was determined from the linear regression equation generated from the absorbance values of the hBD3 standards. […] It is important to note that the majority of the AMP research fails to detect peptide concentrations from both in vitro and in vivo experiments despite observing upregulation at the mRNA level and the ability to augment antimicrobial activity of cells in either context.

[2] = system: DEFB103 (Human β-defensin 3) mRNA expression; assay: DEFB103 (human β-defensin 3) mRNA expression in hTCEpi cells, quantitative PCR; assay type: cell-based; details: hTCEpi corneal epithelial cells, treated individually, 24 hours
Procedure: Telomerase immortalized human corneal epithelial cells (hTCEpi cells, passage 40-50) were grown in 6-well plates to 80-90% confluence. Cells were treated with andrographolide, oridonin, isoliquiritigenin (Selleck Chem) individually for 24 hours, at concentrations previously determined to have no effect on cellular viability based on cell morphology, MTT assay and RNA yield. Vehicle control type was based on manufacturers' diluent recommendation and concentration was equivalent to the diluent concentration in the highest treatment (andrographolide and oridonin: DMSO, isoliquiritigenin: ethanol). After 24 hours, media was aspirated from each well and washed with sterile PBS. Total RNA was extracted (GeneJet) and quantified (NanoDrop). Approximately 50 ng of total RNA from each sample was reverse transcribed and quantitative PCR was performed using […] for DEFB103 (ThermoFisher), and GAPDH specific aptamers were used as a control. Expression of DEFB103 was calculated using the 2^-ddCt method. A one-way ANOVA was performed to determine statistical significance with a post-hoc test to determine individual differences.
Separate time course experiments were performed as described above, where data points were taken at 2, 6, 12, and 24 hours.

Compound | hBD3 peptide expression [1] | increase of human β-defensin 3 mRNA expression over vehicle control alone [2]
C=C1CC[C@@H]2[C@](C)(CO)[C@H](O)CC[C@@]2(C)[C@@H]1C/C=C1/C(=O)OC[C@H]1O [andrographolide] | markedly upregulated in a dose-dependent manner | 360 fold
O=C(/C=C/c1ccc(O)cc1)c1ccc(O)cc1O [isoliquiritigenin] | below the limit of detection | 9-10 fold
oridonin | below the limit of detection | 4 fold
